In patent US8748496B2, “Methods of treatment of hyperuricemia and associated disease states” (Elan Pharmaceuticals, Inc., priority 2008, dated 2014):
Entries after “also recorded” stand apart in the source; their conditions may differ.

Test system: serum uric acid levels
Assay: Phase 1 open-label multiple dosing study, serum uric acid in healthy adult subjects
Format: in vivo, human
Details: 2000 mg BID oral 10 days; for uric acid, Mean: N=8
Procedure: A Phase 1 single site, open-label multiple dosing study evaluating a scyllo-inositol formulation was conducted in healthy adult subjects. Approximately 8 healthy male subjects received 2000 mg of scyllo-inositol twice daily (4-500 mg tablets orally administered twice a day) for 10 days. Blood samples were collected 12 hours prior to the first dose (day 0) and on days 6, 14, and 21. Scyllo-inositol 500 mg capsules were BSE/TSE-free soft gelatin, white, opaque capsules and no excipients were used in the finished product. Capsules were supplied in 60-mL, oblong, white pharmaceutical high density polyethylene (HDPE) bottles with white caps. Each 60-mL bottle contained 30 capsules of 500 mg strength scyllo-inositol.

[1] = Baseline (Day 0, before first dose)

Q: `O[C@H]1[C@H](O)[C@@H](O)[C@H](O)[C@@H](O)[C@@H]1O` [scyllo-inositol, 1,2,3,4,5,6-cyclohexanehexyl, (1alpha,2beta,3alpha,4beta,5alpha,6beta)] was tested. Which “uric acid, Max” value [1] did it give?
A: The value was 375 micromole per liter.

Q: And the “uric acid, Median” value [1]?
A: Its value is 300.4 micromole per liter.

Q: And the “uric acid, Min” value [1]?
A: The value was 256 micromole per liter.

Q: And the “uric acid, Mean” value [1]?
A: The value was 305.6 micromole per liter.

Q: What about the “uric acid, Max” value (Day 6) of the same compound?
A: Its value is 250 micromole per liter.

Q: What about the “uric acid, Max Change from Baseline” value (Day 6) of the same compound?
A: The value was −12 micromole per liter.

Q: What about the “uric acid, Mean Change from Baseline” value (Day 6) of the same compound?
A: The value was −88.8 micromole per liter.

Q: And the “uric acid, Median” value (Day 6)?
A: Its value is 226.0 micromole per liter.

Q: And the “uric acid, Median Change from Baseline” value (Day 6)?
A: Its value is −72.6 micromole per liter.

Q: What about the “uric acid, Min” value (Day 6) of the same compound?
A: Its value is 155 micromole per liter.

Q: What about the “uric acid, Min Change from Baseline” value (Day 6) of the same compound?
A: The value was −172 micromole per liter.

Q: What about the “uric acid, Mean” value (Day 6) of the same compound?
A: Its value is 216.8 micromole per liter.

Q: And the “uric acid, Max” value (Day 14)?
A: Its value is 274 micromole per liter.

Q: And the “uric acid, Max Change from Baseline” value (Day 14)?
A: The value was −12 micromole per liter.

Q: And the “uric acid, Mean Change from Baseline” value (Day 14)?
A: The value was −70.6 micromole per liter.

Q: And the “uric acid, Median” value (Day 14)?
A: The value was 237.9 micromole per liter.

Q: What about the “uric acid, Median Change from Baseline” value (Day 14) of the same compound?
A: The value was −74.4 micromole per liter.

Q: What about the “uric acid, Min” value (Day 14) of the same compound?
A: The value was 196 micromole per liter.

Q: And the “uric acid, Min Change from Baseline” value (Day 14)?
A: The value was −131 micromole per liter.

Q: What about the “uric acid, Mean” value (Day 14) of the same compound?
A: Its value is 243.9 micromole per liter.

Q: And the “uric acid, Max” value (Day 21)?
A: Its value is 333 micromole per liter.

Q: What about the “uric acid, Max Change from Baseline” value (Day 21) of the same compound?
A: The value was 65 micromole per liter.

Q: What about the “uric acid, Mean Change from Baseline” value (Day 21) of the same compound?
A: The value was −16.4 micromole per liter.

Q: And the “uric acid, Median” value (Day 21)?
A: Its value is 291.5 micromole per liter.

Q: What about the “uric acid, Median Change from Baseline” value (Day 21) of the same compound?
A: Its value is −23.8 micromole per liter.

Q: What about the “uric acid, Min” value (Day 21) of the same compound?
A: The value was 250 micromole per liter.

Q: What about the “uric acid, Min Change from Baseline” value (Day 21) of the same compound?
A: Its value is −83 micromole per liter.

Q: What about the “uric acid after the end of treatment” value (Day 21, last follow-up visit) of the same compound?
A: Its value is “returned to Day 0 values by Day 21”.

Q: What about the “uric acid, Mean” value (Day 21) of the same compound?
A: The value was 289.2 micromole per liter.

Q: What about the “serum uric acid levels following the start of treatment” value (all 8 subjects) of the same compound?
A: Its value is “decreased in all subjects; also recorded: a decrease in serum uric acid levels was observed in all subjects”.

Q: What about the “mean uric acid levels versus normal range” value (during the study) of the same compound?
A: The value was “remained within the normal range”.
